Results reported in ChEMBL document CHEMBL5303573, “Mapping human microbiome drug metabolism by gut bacteria and their genes” (Nature, 2019).

Key:
[1] = The drug is tested on Bacteroides caccae strain: ATCC43185 for biotransformation. The drug concentrations were measured before and after a 12-h incubation by liquid-chromatography-coupled mass spectrometry (LC–MS); details: 2 µM
[2] = The drug is tested on Ruminococcus torques strain: ATCC27756 for biotransformation. The drug concentrations were measured before and after a 12-h incubation by liquid-chromatography-coupled mass spectrometry (LC–MS); assay type: ADME; set-up: dose 2 uM, timepoint 0 vs 12 hours; details: 2 µM
[3] = The drug is tested on Enterobacter cancerogenus strain: ATCC35316 for biotransformation. The drug concentrations were measured before and after a 12-h incubation by liquid-chromatography-coupled mass spectrometry (LC–MS); details: 2 µM
[4] = The drug is tested on Bacteroides sp. WH2 strain: WH2 for biotransformation. The drug concentrations were measured before and after a 12-h incubation by liquid-chromatography-coupled mass spectrometry (LC–MS); details: bacteroides sp. wh2, 12 h, 2 µM
[5] = bacteroides fragilis, 12 h, 2 µM
Description: The drug is tested on Bacteroides fragilis strain: NCTC 9343 for biotransformation. The drug concentrations were measured before and after a 12-h incubation by liquid-chromatography-coupled mass spectrometry (LC–MS)

[6] = bacteroides stercoris, 12 h, 2 µM
Description: The drug is tested on Bacteroides stercoris strain: ATCC43183 for biotransformation. The drug concentrations were measured before and after a 12-h incubation by liquid-chromatography-coupled mass spectrometry (LC–MS)

[7] = The drug is tested on Bacteroides fragilis strain: HMW610 for biotransformation. The drug concentrations were measured before and after a 12-h incubation by liquid-chromatography-coupled mass spectrometry (LC–MS); details: 2 µM
[8] = The drug is tested on Eubacterium ventriosum strain: ATCC27560 for biotransformation. The drug concentrations were measured before and after a 12-h incubation by liquid-chromatography-coupled mass spectrometry (LC–MS); assay type: ADME; set-up: dose 2 uM, timepoint 0 vs 12 hours; details: 2 µM
[9] = The drug is tested on Bacteroides dorei strain: DSM17855 for biotransformation. The drug concentrations were measured before and after a 12-h incubation by liquid-chromatography-coupled mass spectrometry (LC–MS); details: phocaeicola dorei, 2 µM
[10] = parabacteroides distasonis, 12 h, 2 µM
Description: The drug is tested on Parabacteroides distasonis strain: ATCC8503 for biotransformation. The drug concentrations were measured before and after a 12-h incubation by liquid-chromatography-coupled mass spectrometry (LC–MS)

[11] = The drug is tested on Anaerococcus hydrogenalis strain: DSM7454 for biotransformation. The drug concentrations were measured before and after a 12-h incubation by liquid-chromatography-coupled mass spectrometry (LC–MS); details: 2 µM
[12] = bacteroides fragilis, 12 h, 2 µM; remark: listed apart in the source
Description: The drug is tested on Bacteroides fragilis strain: 3397 (T10) for biotransformation. The drug concentrations were measured before and after a 12-h incubation by liquid-chromatography-coupled mass spectrometry (LC–MS)

[13] = The drug is tested on Bacteroides fragilis strain: ATCC43859 for biotransformation. The drug concentrations were measured before and after a 12-h incubation by liquid-chromatography-coupled mass spectrometry (LC–MS); details: 2 µM
[14] = The drug is tested on Clostridium scindens strain: ATCC35704 for biotransformation. The drug concentrations were measured before and after a 12-h incubation by liquid-chromatography-coupled mass spectrometry (LC–MS); details: 2 µM
[15] = The drug is tested on Blautia luti strain: DSM14534 for biotransformation. The drug concentrations were measured before and after a 12-h incubation by liquid-chromatography-coupled mass spectrometry (LC–MS); assay type: ADME; set-up: dose 2 uM, timepoint 0 vs 12 hours; details: 2 µM
[16] = The drug is tested on Enterococcus faecalis strain: V583 for biotransformation. The drug concentrations were measured before and after a 12-h incubation by liquid-chromatography-coupled mass spectrometry (LC–MS); details: 2 µM
[17] = bacteroides thetaiotaomicron, 12 h, 2 µM
Description: The drug is tested on Bacteroides thetaiotaomicron strain: 3731 for biotransformation. The drug concentrations were measured before and after a 12-h incubation by liquid-chromatography-coupled mass spectrometry (LC–MS)

[18] = The drug is tested on Bifidobacterium ruminantium strain: fecal isolate for biotransformation. The drug concentrations were measured before and after a 12-h incubation by liquid-chromatography-coupled mass spectrometry (LC–MS); details: 2 µM
[19] = The drug is tested on Bifidobacterium longum subsp. Infantis strain: CCUG52486 for biotransformation. The drug concentrations were measured before and after a 12-h incubation by liquid-chromatography-coupled mass spectrometry (LC–MS); details: 2 µM
[20] = segatella copri, 12 h, 2 µM
Description: The drug is tested on Prevotella copri strain: DSM18205 for biotransformation. The drug concentrations were measured before and after a 12-h incubation by liquid-chromatography-coupled mass spectrometry (LC–MS)

## COc1ccccc1OCCNCC(O)COc1cccc2[nH]c3ccccc3c12 (stereo not given) [CARVEDILOL]
[1]
  Bacterial Biotransformation: Compound metabolized
[2]
  Bacterial Biotransformation: Compound NOT metabolized
[3]
  Bacterial Biotransformation: Compound metabolized
[4]
  Bacterial Biotransformation: Compound metabolized
[5]
  Bacterial Biotransformation: Compound metabolized
[6]
  Bacterial Biotransformation: Compound metabolized
[7]
  Bacterial Biotransformation: Compound NOT metabolized
[8]
  Bacterial Biotransformation: Compound metabolized
[9]
  Bacterial Biotransformation: Compound metabolized
[10]
  Bacterial Biotransformation: Compound metabolized
[11]
  Bacterial Biotransformation: Compound metabolized
[12]
  Bacterial Biotransformation: Compound NOT metabolized
[13]
  Bacterial Biotransformation: Compound NOT metabolized
[14]
  Bacterial Biotransformation: Compound NOT metabolized
[15]
  Bacterial Biotransformation: Compound metabolized
[16]
  Bacterial Biotransformation: Compound NOT metabolized
[17]
  Bacterial Biotransformation: Compound metabolized
[18]
  Bacterial Biotransformation: Compound metabolized
[19]
  Bacterial Biotransformation: Compound NOT metabolized
[20]
  Bacterial Biotransformation: Compound metabolized

## COc1c(C)c2c(c(O)c1C/C=C(\C)CCC(=O)OCCN1CCOCC1)C(=O)OC2 [MYCOPHENOLATE MOFETIL]
[1]
  Bacterial Biotransformation: Compound metabolized
[2]
  Bacterial Biotransformation: Compound metabolized
[3]
  Bacterial Biotransformation: Compound metabolized
[4]
  Bacterial Biotransformation: Compound metabolized
[5]
  Bacterial Biotransformation: Compound metabolized
[6]
  Bacterial Biotransformation: Compound metabolized
[7]
  Bacterial Biotransformation: Compound metabolized
[8]
  Bacterial Biotransformation: Compound metabolized
[9]
  Bacterial Biotransformation: Compound metabolized
[10]
  Bacterial Biotransformation: Compound metabolized
[11]
  Bacterial Biotransformation: Compound metabolized
[12]
  Bacterial Biotransformation: Compound metabolized
[13]
  Bacterial Biotransformation: Compound metabolized
[14]
  Bacterial Biotransformation: Compound metabolized
[15]
  Bacterial Biotransformation: Compound metabolized
[16]
  Bacterial Biotransformation: Compound metabolized
[17]
  Bacterial Biotransformation: Compound metabolized
[18]
  Bacterial Biotransformation: Compound metabolized
[19]
  Bacterial Biotransformation: Compound metabolized
[20]
  Bacterial Biotransformation: Compound metabolized

## CCOC(=O)C1=C(C)NC(C)=C(C(=O)OC)C1c1cccc([N+](=O)[O-])c1 (stereo not given) [NITRENDIPINE]
[1]
  Bacterial Biotransformation: Compound metabolized
[2]
  Bacterial Biotransformation: Compound metabolized
[3]
  Bacterial Biotransformation: Compound NOT metabolized
[4]
  Bacterial Biotransformation: Compound metabolized
[5]
  Bacterial Biotransformation: Compound metabolized
[6]
  Bacterial Biotransformation: Compound metabolized
[7]
  Bacterial Biotransformation: Compound metabolized
[8]
  Bacterial Biotransformation: Compound metabolized
[9]
  Bacterial Biotransformation: Compound metabolized
[10]
  Bacterial Biotransformation: Compound metabolized
[11]
  Bacterial Biotransformation: Compound metabolized
[12]
  Bacterial Biotransformation: Compound metabolized
[13]
  Bacterial Biotransformation: Compound metabolized
[14]
  Bacterial Biotransformation: Compound metabolized
[15]
  Bacterial Biotransformation: Compound metabolized
[16]
  Bacterial Biotransformation: Compound metabolized
[17]
  Bacterial Biotransformation: Compound metabolized
[18]
  Bacterial Biotransformation: Compound metabolized
[19]
  Bacterial Biotransformation: Compound metabolized
[20]
  Bacterial Biotransformation: Compound metabolized

## COc1ccc2[nH]c([S+]([O-])Cc3ncc(C)c(OC)c3C)nc2n1 (stereo not given) [TENATOPRAZOLE]
[1]
  Bacterial Biotransformation: Compound metabolized
[2]
  Bacterial Biotransformation: Compound metabolized
[3]
  Bacterial Biotransformation: Compound metabolized
[4]
  Bacterial Biotransformation: Compound metabolized
[5]
  Bacterial Biotransformation: Compound metabolized
[6]
  Bacterial Biotransformation: Compound metabolized
[7]
  Bacterial Biotransformation: Compound metabolized
[8]
  Bacterial Biotransformation: Compound metabolized
[9]
  Bacterial Biotransformation: Compound metabolized
[10]
  Bacterial Biotransformation: Compound metabolized
[11]
  Bacterial Biotransformation: Compound metabolized
[12]
  Bacterial Biotransformation: Compound metabolized
[13]
  Bacterial Biotransformation: Compound metabolized
[14]
  Bacterial Biotransformation: Compound metabolized
[15]
  Bacterial Biotransformation: Compound metabolized
[16]
  Bacterial Biotransformation: Compound metabolized
[17]
  Bacterial Biotransformation: Compound metabolized
[18]
  Bacterial Biotransformation: Compound metabolized
[19]
  Bacterial Biotransformation: Compound metabolized
[20]
  Bacterial Biotransformation: Compound metabolized

## CN1CCc2cccc3c2[C@H]1Cc1ccc(O)c(O)c1-3 [APOMORPHINE]
[1]
  Bacterial Biotransformation: Compound NOT metabolized
[2]
  Bacterial Biotransformation: Compound NOT metabolized
[3]
  Bacterial Biotransformation: Compound NOT metabolized
[4]
  Bacterial Biotransformation: Compound NOT metabolized
[5]
  Bacterial Biotransformation: Compound NOT metabolized
[6]
  Bacterial Biotransformation: Compound NOT metabolized
[7]
  Bacterial Biotransformation: Compound NOT metabolized
[8]
  Bacterial Biotransformation: Compound NOT metabolized
[9]
  Bacterial Biotransformation: Compound NOT metabolized
[10]
  Bacterial Biotransformation: Compound NOT metabolized
[11]
  Bacterial Biotransformation: Compound NOT metabolized
[12]
  Bacterial Biotransformation: Compound NOT metabolized
[13]
  Bacterial Biotransformation: Compound NOT metabolized
[14]
  Bacterial Biotransformation: Compound NOT metabolized
[15]
  Bacterial Biotransformation: Compound NOT metabolized
[16]
  Bacterial Biotransformation: Compound NOT metabolized
[17]
  Bacterial Biotransformation: Compound NOT metabolized
[18]
  Bacterial Biotransformation: Compound NOT metabolized
[19]
  Bacterial Biotransformation: Compound NOT metabolized
[20]
  Bacterial Biotransformation: Compound NOT metabolized

## CC[C@@H](CO)NC(=O)[C@@H]1C=C2c3cccc4c3c(cn4C)C[C@H]2N(C)C1.O=C(O)/C=C\C(=O)O [METHYSERGIDE MALEATE]
[1]
  Bacterial Biotransformation: Compound metabolized
[2]
  Bacterial Biotransformation: Compound metabolized
[3]
  Bacterial Biotransformation: Compound metabolized
[4]
  Bacterial Biotransformation: Compound metabolized
[5]
  Bacterial Biotransformation: Compound metabolized
[6]
  Bacterial Biotransformation: Compound metabolized
[7]
  Bacterial Biotransformation: Compound NOT metabolized
[8]
  Bacterial Biotransformation: Compound metabolized
[9]
  Bacterial Biotransformation: Compound metabolized
[10]
  Bacterial Biotransformation: Compound metabolized
[11]
  Bacterial Biotransformation: Compound metabolized
[12]
  Bacterial Biotransformation: Compound metabolized
[13]
  Bacterial Biotransformation: Compound NOT metabolized
[14]
  Bacterial Biotransformation: Compound metabolized
[15]
  Bacterial Biotransformation: Compound metabolized
[16]
  Bacterial Biotransformation: Compound metabolized
[17]
  Bacterial Biotransformation: Compound metabolized
[18]
  Bacterial Biotransformation: Compound metabolized
[19]
  Bacterial Biotransformation: Compound metabolized
[20]
  Bacterial Biotransformation: Compound metabolized

## COc1ccc2[nH]c([S+]([O-])Cc3ncc(C)c(OC)c3C)nc2c1 (stereo not given) [OMEPRAZOLE]
[1]
  Bacterial Biotransformation: Compound metabolized
[2]
  Bacterial Biotransformation: Compound metabolized
[3]
  Bacterial Biotransformation: Compound metabolized
[4]
  Bacterial Biotransformation: Compound metabolized
[5]
  Bacterial Biotransformation: Compound metabolized
[6]
  Bacterial Biotransformation: Compound metabolized
[7]
  Bacterial Biotransformation: Compound metabolized
[8]
  Bacterial Biotransformation: Compound metabolized
[9]
  Bacterial Biotransformation: Compound metabolized
[10]
  Bacterial Biotransformation: Compound metabolized
[11]
  Bacterial Biotransformation: Compound metabolized
[12]
  Bacterial Biotransformation: Compound metabolized
[13]
  Bacterial Biotransformation: Compound metabolized
[14]
  Bacterial Biotransformation: Compound metabolized
[15]
  Bacterial Biotransformation: Compound metabolized
[16]
  Bacterial Biotransformation: Compound metabolized
[17]
  Bacterial Biotransformation: Compound metabolized
[18]
  Bacterial Biotransformation: Compound metabolized
[19]
  Bacterial Biotransformation: Compound metabolized
[20]
  Bacterial Biotransformation: Compound metabolized

## CCOc1ccc2nc(S(N)(=O)=O)sc2c1 [ETHOXZOLAMIDE]
[1]
  Bacterial Biotransformation: Compound metabolized
[2]
  Bacterial Biotransformation: Compound metabolized
[3]
  Bacterial Biotransformation: Compound metabolized
[4]
  Bacterial Biotransformation: Compound metabolized
[5]
  Bacterial Biotransformation: Compound metabolized
[6]
  Bacterial Biotransformation: Compound metabolized
[7]
  Bacterial Biotransformation: Compound NOT metabolized
[8]
  Bacterial Biotransformation: Compound metabolized
[9]
  Bacterial Biotransformation: Compound NOT metabolized
[10]
  Bacterial Biotransformation: Compound metabolized
[11]
  Bacterial Biotransformation: Compound metabolized
[12]
  Bacterial Biotransformation: Compound metabolized
[13]
  Bacterial Biotransformation: Compound NOT metabolized
[14]
  Bacterial Biotransformation: Compound metabolized
[15]
  Bacterial Biotransformation: Compound metabolized
[16]
  Bacterial Biotransformation: Compound metabolized
[17]
  Bacterial Biotransformation: Compound metabolized
[18]
  Bacterial Biotransformation: Compound metabolized
[19]
  Bacterial Biotransformation: Compound metabolized
[20]
  Bacterial Biotransformation: Compound metabolized
